# Measured values: ChEMBL document CHEMBL5331079, “Novel thiazolidines of potential anti-proliferation properties against esophageal squamous cell carcinoma via ERK pathway” (Eur J Med Chem, 2023)
# Calls of active or inactive are those of the source. The calls are words filed in the database; no cut-off is given here.
# Legend:
# KYSE-30 [1] = assay: Antiproliferative activity against human KYSE-30 cells assessed as inhibition of cell growth incubated for 72 hrs by MTT assay; type: functional, cell-based; conditions: KYSE-30, 72 h
# NES-G4T [2] = assay: Induction of apoptosis in human NES-G4T cells assessed as effect on ratio of AKT phosphorylation incubated for 4 to 12 hrs by Western blotting analysis; type: functional, cell-based; conditions: time 4-12 hrs
# KYSE-150 cell line [3] = assay: Induction of apoptosis in human KYSE-150 cell line assessed as effect on ratio of ERK phosphorylation incubated for 4 to 12 hrs by Western blotting analysis; type: functional, cell-based; conditions: time 4-12 hrs
# [4] = Antiproliferative activity against human NES-G4T cells assessed as reduction of cell viability at 1.25 to 100 uM incubated for 72 hrs by MTT assay; type: toxicity, cell-based; conditions: dose 1.25-100 µM
# KYSE-30 [5] = assay: Induction of apoptosis in human KYSE-30 cells assessed as nuclear fragmentation at 10 uM incubated upto 72 hrs by DAPI staining based confocal laser scanner microscopy analysis; type: functional, cell-based
# HET-1A = assay: Antiproliferative activity against human HET-1A cells assessed as reduction of cell viability at 1.25 to 100 uM incubated for 72 hrs by MTT assay; type: toxicity, cell-based; conditions: dose 1.25-100 µM
# KYSE-150 cell line [6] = assay: Induction of apoptosis in human KYSE-150 cell line assessed as chromatin condensation at 10 uM incubated upto 72 hrs by DAPI staining based confocal laser scanner microscopy analysis; type: functional
# KYSE-150 cell line [7] = assay: Induction of apoptosis in human KYSE-150 cell line assessed as effect on ratio of AKT phosphorylation incubated for 4 to 12 hrs by Western blotting analysis; type: functional, cell-based; conditions: time 4-12 hrs
# KYSE-30 [8] = assay: Induction of apoptosis in human KYSE-30 cells assessed as loss of nuclei integrity at 10 uM incubated for 72 hrs by DAPI staining based confocal laser scanner microscopy analysis; type: functional, cell-based
# KYSE-150 cell line [9] = assay: Antiproliferative activity against human KYSE-150 cell line assessed as reduction of cell viability at 1.25 to 100 uM incubated for 72 hrs by MTT assay; type: functional, cell-based; conditions: dose 1.25-100 µM
# KYSE-150 cell line [10] = assay: Antiproliferative activity against human KYSE-150 cell line assessed as inhibition of cell growth incubated for 72 hrs by MTT assay; type: functional, cell-based; conditions: KYSE-150, 72 h
# KYSE-150 cell line [11] = assay: Induction of apoptosis in human KYSE-150 cell line assessed as downregulation of ERK protein level incubated for 4 to 12 hrs by Western blotting analysis; type: functional, cell-based; conditions: time 4-12 hrs, TDE = time-dependent effect
# KYSE-150 cell line [12] = assay: Inhibition of cell growth in human KYSE-150 cell line at 10 uM incubated for 72 hrs by MTT assay relative to control; type: functional
# KYSE-150 cell line [13] = assay: Induction of apoptosis in human KYSE-150 cell line assessed as nuclear fragmentation at 10 uM incubated upto 72 hrs by DAPI staining based confocal laser scanner microscopy analysis; type: functional
# KYSE-30 [14] = assay: Induction of apoptosis in human KYSE-30 cells assessed as chromatin condensation at 10 uM incubated upto 72 hrs by DAPI staining based confocal laser scanner microscopy analysis; type: functional, cell-based
# NES-G4T [15] = assay: Induction of apoptosis in human NES-G4T cells assessed as effect on ratio of ERK phosphorylation incubated for 4 to 12 hrs by Western blotting analysis; type: functional, cell-based; conditions: time 4-12 hrs
# [16] = Antiproliferative activity against human HET-1A cells assessed as inhibition of cell growth incubated for 72 hrs by MTT assay; type: toxicity, cell-based
# [17] = Antiproliferative activity against human NES-G4T cells assessed as inhibition of cell growth incubated for 72 hrs by MTT assay; type: toxicity, cell-based
# KYSE-30 [18] = assay: Antiproliferative activity against human KYSE-30 cells assessed as reduction of cell viability at 1.25 to 100 uM incubated for 72 hrs by MTT assay; type: functional, cell-based; conditions: dose 1.25-100 µM
# KYSE-150 cell line [19] = assay: Induction of apoptosis in human […] cell line assessed as loss of nuclei integrity at 10 uM incubated for 72 hrs by DAPI staining based confocal laser scanner microscopy analysis; type: functional
# MCF7 = assay: Antiproliferative activity against human MCF7 cells assessed as inhibition of cell growth incubated for 96 hrs by MTT assay; type: functional, cell-based; conditions: MCF7, 96 h
smiles,measurement,setting,value
COc1ccc(/N=C2/NC(C)(C)/C(=C/c3ccc(Br)cc3)S2)cc1,IC50,KYSE-30 [1],14.2 µM
CC1(C)N/C(=N/c2ccc(F)cc2)S/C1=C\c1ccc(Br)cc1,IC50,KYSE-30 [1],10.6 µM
COc1ccc(/N=C2/NC(C)(C)/C(=C/c3ccc(Br)cc3)S2)c([N+](=O)[O-])c1,Activity,NES-G4T [2],inactive
same,Activity,KYSE-150 cell line [3],inactive
same,Activity,[4],Toxic
same,Activity,KYSE-30 [5],Active
same,Activity,HET-1A,Toxic
same,Activity,KYSE-150 cell line [6],Active
same,Activity,KYSE-150 cell line [7],inactive
same,Activity,KYSE-30 [8],Active
same,Activity,KYSE-150 cell line [9],Dose-Dependent Effect
same,IC50,KYSE-150 cell line [10],10.1 µM
same,Activity,KYSE-150 cell line [11],Tde
same,inhibition at 10 µM,KYSE-150 cell line [12],71%
same,Activity,KYSE-150 cell line [13],Active
same,Activity,KYSE-30 [14],Active
same,IC50,KYSE-30 [1],16.8 µM
same,Activity,NES-G4T [15],inactive
same,IC50 at 72 h,[16],13 µM
same,IC50 at 72 h,[17],202 µM
same,Activity,KYSE-30 [18],Dose-Dependent Effect
same,Activity,KYSE-150 cell line [19],Active
CC1(C)N/C(=N/c2ccc(Br)cc2)S/C1=C\c1ccc(Br)cc1,IC50,KYSE-30 [1],13.2 µM
CC1(C)N/C(=N/c2ccc(Cl)cc2)S/C1=C\c1ccc(Br)cc1,IC50,KYSE-30 [1],64.2 µM
COc1ccc(/C=C2\S/C(=N\c3ccccc3)N(C)C2C)cc1 (stereo not given),IC50,MCF7,0.5 µM
Cc1ccc(/N=C2/NC(C)(C)/C(=C/c3ccc(Br)cc3)S2)cc1Cl,IC50,KYSE-30 [1],65.4 µM
CNC(C)C#Cc1ccc(OC)cc1 (stereo not given),IC50,MCF7,0.5 µM
CC1(C)N/C(=N/c2ccccc2)S/C1=C\c1ccc(Br)cc1,IC50,KYSE-30 [1],18.6 µM
Cc1ccc(/N=C2/NC(C)(C)/C(=C/c3ccc(Br)cc3)S2)cc1,IC50,KYSE-30 [1],64.3 µM
CC1(C)N/C(=N/c2ccc([N+](=O)[O-])cc2)S/C1=C\c1ccc(Br)cc1,IC50,KYSE-30 [1],31.5 µM
